Results taken from the supplement of paper PMC10307832.

Experiments:
Assay in all cases: relative viability (nuclei count vs DMSO), 5 days (fraction); higher = more cells survive
SGI-1776 + Dasatinib = compound: CN1CCC(CNc2ccc3ncc(-c4cccc(OC(F)(F)F)c4)n3n2)CC1 [SGI-1776] + Cc1nc(Nc2ncc(C(=O)Nc3c(C)cccc3Cl)s2)cc(N2CCN(CCO)CC2)n1 [Dasatinib] (partner 0.075 µM)
Summary of the method: (§1)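 Cells from lung cancer lines were seeded into 1536-well plates and, one day later, dosed by pin tool. Treatments were either a single drug or a fixed dose of an anchor drug with five library-drug doses (not always all listed) in √10 steps. After 5 days, nuclei were stained in a one-step fixation (final 0.05% Triton X-100, 1% formaldehyde, 1 ug/ml Hoechst) and counted on 4× images, and relative viability is the treated-to-vehicle nuclei ratio, as the median of duplicate plates.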

SGI-1776 + AZD7762 = compound: CN1CCC(CNc2ccc3ncc(-c4cccc(OC(F)(F)F)c4)n3n2)CC1 [SGI-1776] + NC(=O)Nc1cc(-c2cccc(F)c2)sc1C(=O)N[C@H]1CCCNC1 [AZD7762] (partner 0.2 µM)
Summary of the method: as §1

SGI-1776 + Phenformin = compound: CN1CCC(CNc2ccc3ncc(-c4cccc(OC(F)(F)F)c4)n3n2)CC1 [SGI-1776] + N=C(N)NC(=N)NCCc1ccccc1 [Phenformin] (partner 250 µM)
Summary of the method: as §1

Entinostat + Decitabine = compound: Nc1ccccc1NC(=O)c1ccc(CNC(=O)OCc2cccnc2)cc1 [Entinostat] + Nc1ncn([C@H]2C[C@H](O)[C@@H](CO)O2)c(=O)n1 [Decitabine] (partner 2 µM)
Summary of the method: as §1

Cell Line	relative viability (SGI-1776 + Dasatinib; first compound 0.08 µM)	relative viability (SGI-1776 + Dasatinib; first compound 0.8 µM)	relative viability (SGI-1776 + Dasatinib; first compound 2.53 µM)	relative viability (SGI-1776 + Dasatinib; first compound 8 µM)	relative viability (SGI-1776 + AZD7762; first compound 0.08 µM)	relative viability (SGI-1776 + AZD7762; first compound 0.8 µM)	relative viability (SGI-1776 + AZD7762; first compound 2.53 µM)	relative viability (SGI-1776 + AZD7762; first compound 8 µM)	relative viability (SGI-1776 + Phenformin; first compound 0.08 µM)	relative viability (SGI-1776 + Phenformin; first compound 0.8 µM)	relative viability (SGI-1776 + Phenformin; first compound 2.53 µM)	relative viability (SGI-1776 + Phenformin; first compound 8 µM)	relative viability (Entinostat + Decitabine; first compound 0.02 µM)	relative viability (Entinostat + Decitabine; first compound 0.06325 µM)	relative viability (Entinostat + Decitabine; first compound 0.2 µM)	relative viability (Entinostat + Decitabine; first compound 0.6325 µM)	relative viability (Entinostat + Decitabine; first compound 2 µM)
NCI-H441	0.633	0.625	0.539	0.55	1.25	1.2	1.07	1.13	0.759	0.769	0.82	0.663	0.237	0.284	0.264	0.138	0.132
NCI-H520	0.279	0.221	0.153	0.131	–	–	–	–	0.687	0.597	0.53	0.316	0.571	0.464	0.482	0.385	0.35
NCI-H661	1	0.979	0.837	0.692	–	–	–	–	0.269	0.271	0.306	0.246	0.58	0.549	0.538	0.479	0.356
NCI-H1563	0.446	0.474	0.457	0.453	–	–	–	–	0.694	0.595	0.63	0.548	–	–	–	–	–
NCI-H1623	0.658	0.608	0.559	0.538	–	–	–	–	0.611	0.571	0.556	0.626	–	–	–	–	–
NCI-H1648	–	–	–	–	0.668	0.753	0.771	0.658	–	–	–	–	0.476	0.524	0.416	0.326	0.285
NCI-H1650	0.372	0.292	0.208	0.171	–	–	–	–	0.441	0.368	0.248	0.129	0.381	0.394	0.43	0.258	0.273
NCI-H1703	–	–	–	–	0.106	0.114	0.136	0.106	–	–	–	–	–	–	–	–	–
NCI-H2009	0.373	0.291	0.231	0.15	–	–	–	–	0.407	0.394	0.381	0.3	0.433	0.385	0.4	0.409	0.323
NCI-H2023	0.637	0.523	0.432	0.254	–	–	–	–	0.379	0.377	0.332	0.282	0.199	0.14	0.157	0.0887	0.0748
NCI-H2228	0.581	0.665	0.416	0.27	–	–	–	–	0.345	0.327	0.286	0.164	–	–	–	–	–
SK-LU-1	0.171	0.183	0.169	0.116	–	–	–	–	0.528	0.494	0.37	0.322	0.643	0.805	0.638	0.473	0.418
SK-MES-1	0.476	0.415	0.35	0.211	–	–	–	–	0.643	0.593	0.53	0.493	0.362	0.36	0.434	0.303	0.331
SW 1573	0.457	0.456	0.457	0.295	–	–	–	–	0.381	0.31	0.356	0.275	0.526	0.46	0.486	0.311	0.22
